According to patent US12016884B2, “Adipose derived stem cell exosomes and uses thereof” (UNIVERSITY OF SOUTH FLORIDA, priority 2016, dated 2024):
“Also recorded” adds a separate entry of the source.

System: human dermal fibroblast (HDF) cells
Test: ECIS (electric cell-substrate impedance sensing) wound healing assay
Format: cell-based
Conditions: Dynasore about 50 μM added to media with 20 μg exosomes (FIG. 9)
Experimental: ECIS assays: The ECIS or electric cell-substrate impedance sensing instrument (Applied Biophysics) recorded the impedance on electrically wounded hHDF to detect the migratory response. Briefly, 200 μl of cell suspension were seeded per well of 8W1E ECIS array (5×10^4 cells per well) coated with about 1% gelatin. After cells were confluent in the incubator, the ECIS chambers were mounted to the ECIS system. […] Arrays were then washed with medium under the microscope to remove any dead cells on the electrodes. Thereafter, the wound healing process was determined in real-time by measuring the recovery of electrical impedance, an indicator of the surrounding viable fibroblast cells migrating into the wounded area. […]
Briefly, HDF cells on the micro-electrods of the ECIS wells were killed with a high electrical voltage. Subsequently, the migration of viable cells onto the wounded microelectrodes was measured in real-time by electrical resistance in the presence of bFGF ([…]), about 10 μg/mL exosomes, and about 20 μg/mL exosome respectively. The percentage of recovery was calculated by the difference in the resistance of each time point and the resistance of the first time point after wounding divided by the resistance before the wounding. […]

O=C(N/N=C/c1ccc(O)c(O)c1)c1cc2ccccc2cc1O [Dynasore]
effect on exosome-driven cell migration in ECIS: blocked the cell migratory effect of exosomes; also recorded: greatly attenuate cell migration; also recorded: inhibition of migration
